Source: paper PMC10582583, “The novel cyclophilin inhibitor C105SR reduces hepatic ischaemia–reperfusion injury via mitoprotection” (JHEP Reports, 2023)

Tests used:
[1] = test system: isolated mouse liver mitochondria; assay: Calcium retention capacity (CRC) assay in isolated liver mitochondria; format: biochemical
[2] = test system: AML-12 cells; assay: Propidium iodide staining, hypoxia/reoxygenation; format: cell-based, mouse; conditions: 1 μM; 4 h hypoxia, 1 h reoxygenation
Description: To assess whether the new SMCypIs reduced mPTP opening-induced cell death, propidium iodide fluorescence was measured in cells that had been co-loaded with calcein-AM. As expected, the loss of calcein fluorescence in cells subjected to hypoxia/reoxygenation was associated with enhanced propidium iodide fluorescence (Fig. 3A and 3C).
Calcium retention capacity (CRC) assay. Isolated liver mitochondria (1 mg/mL) energized with 5 mM glutamate/malate were incubated in a buffer allowing respiration of mitochondria (100 mM KCl, 50 mM sucrose, 10 mM HEPES, 5 mM KH2PO4, pH 7.4 at 30°C) supplemented with 1 µM calcium green 5N fluorescent probe. Mitochondria were pulsed with sequential additions of CaCl2 (20 µM) until mPTP opening along with rapid calcium release happened. The calcium concentration in the extra-mitochondrial medium was monitored with a Jasco FP-6300 spectrofluorimeter (Jasco, Bouguenais, France) at 506 nm excitation and 532 nm emission wavelengths.
Mitochondrial swelling assay. Mitochondrial swelling was assessed by measuring changes in absorbance at 540 nm using a Jasco V-530 spectrophotometer (Bouguenais, France) equipped with magnetic stirring and thermostatic control (30°C). […]
Monitoring of mPTP opening. mPTP opening was monitored in AML-12 cells using the CoCl2-calcein AM fluorescence-quenching assay. […] Calcein fluorescence was measured using a spectrofluorimeter at excitation and emission wavelengths of 485 nm and 535 nm, respectively. Images were acquired using a standard inverted fluorescence microscope (Zeiss Axio, […]
Propidium iodide staining. […] Fluorescence was measured using an Infinite 200 Pro fluorescent plate reader (Tecan, Mannedorf, Switzerland) at excitation and emission wavelengths of 533 nm and 617 nm, respectively. Images were acquired using a standard inverted fluorescence microscope (Zeiss Axio, Oberkochen, Germany). […]
Cell viability assays. Lactate dehydrogenase (LDH) release in culture medium was assessed using the commercially non-radioactive CytoTox-96 kit (Promega, Madison, Wisconsin) following the manufacturer’s instructions. […]

[3] = biological target: CypD (Homo sapiens, UniProt P30405); assay: CypD PPIase activity, chymotrypsin-coupled assay; format: biochemical; conditions: Table 1
Chain of CypD (P30405 30-207): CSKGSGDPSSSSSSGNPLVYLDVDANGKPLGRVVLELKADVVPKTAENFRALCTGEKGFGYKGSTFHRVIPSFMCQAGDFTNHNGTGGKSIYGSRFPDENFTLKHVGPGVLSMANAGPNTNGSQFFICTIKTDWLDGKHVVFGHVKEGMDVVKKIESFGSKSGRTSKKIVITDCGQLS

[4] = test system: AML-12 cells; assay: mPTP opening, CoCl2-calcein AM fluorescence-quenching assay, hypoxia/reoxygenation; format: cell-based, mouse; conditions: 1 μM; 4 h hypoxia, 1 h reoxygenation
Description: We next evaluated the ability of compounds C105SR and C110SR to inhibit mPTP opening in cells. The hepatocyte cell line AML-12 was subjected to 4 h of hypoxia followed by 1 h of reoxygenation and mPTP opening was monitored using the CoCl2-calcein-acetoxymethyl ester (AM) fluorescence-quenching method.[19] Calcein-AM is a membrane permeable fluorophore which passively diffuses in all subcellular compartments including mitochondria. In the cell, the AM group of the fluorophore is cleaved by ubiquitous intracellular esterases, generating a hydrophilic product that is retained within the cell. The cells are then loaded with the divalent cobalt cation (Co^2+), which quenches calcein fluorescence in all subcellular compartments except the mitochondrial matrix, because the inner mitochondrial membrane is impermeable to cobalt. However, when mPTP is open, cobalt enters mitochondria and quenches mitochondrial calcein fluorescence. […]
Hypoxia/reoxygenation (H/R) in vitro model. AML-12 mouse hepatocyte line was obtained from American Type Culture Collection (ATCC) and maintained in DMEM/F12 culture medium at 37°C with 5% CO2. HepaRG human hepatocyte line was obtained from American Type Culture Collection (ATCC) and maintained in William’S E culture medium at 37°C with 5% CO2.When indicated, cells were incubated in phosphate buffered saline at 37°C in a hypoxic chamber filled with 94% N2, 1% O2, 5% CO2 for 4 h to mimic ischemic conditions. Then, cells were transferred to a CO2 incubator at 37°C in regular DMEM/F12 culture medium for 1 or 2 h under normoxic conditions (74% N2, 21% O2, 5% CO2). SMCypIs or vehicle (DMSO) were added during the hypoxia period, during the reoxygenation period, or during both. CsA and ALV were used as positive controls for hepatic protection against H/R injury.
Monitoring of mPTP opening. mPTP opening was monitored in AML-12 cells using the CoCl2-calcein AM fluorescence-quenching assay. Cells were loaded with 1 µM calcein-AM (green) for 20 min. Then, 1 mM CoCl2 was added and cells were incubated for another 10 min. Cells were washed and subjected to 4 h of hypoxia followed by 1 h of reoxygenation. Calcein fluorescence was measured using a spectrofluorimeter at excitation and emission wavelengths of 485 nm and 535 nm, respectively. Images were acquired using a standard inverted fluorescence microscope (Zeiss Axio, […]
media during the entire H/R period. Images shown are representative images of 12-18 images. […]
Optical density of purple formazan product was measured at 550 nm. […]

[5] = test system: isolated mouse liver mitochondria; assay: Ca2+-induced mitochondrial swelling assay; format: biochemical; conditions: energised isolated mouse liver mitochondria

EC50 ([1]; isolated mouse liver mitochondria): 80 ± 20 nM
IC50 [3]: 30 ± 5 nM
IC50 [5]: 50 ± 20 nM
Compound: C/C=C/C[C@@H](C)[C@@H](O)[C@H]1C(=O)N[C@@H](CC)C(=O)N(C)[C@H](C)C(=O)N(CC)[C@@H](C(C)C)C(=O)N[C@@H](C(C)C)C(=O)N(C)[C@@H](CC(C)C)C(=O)N[C@@H](C)C(=O)N[C@H](C)C(=O)N(C)[C@@H](CC(C)C)C(=O)N(C)[C@@H](CC(C)C)C(=O)N(C)[C@@H](C(C)C)C(=O)N1C [ALV, alisporivir, reference compound]
amount of Ca2+ required to open mPTP (CRC) ([1]; compound at 1 μM, basal 160 ± 8): 373 ± 59 nmol Ca2+/mg of mitochondrial
propidium iodide fluorescence [2]: low propidium iodide fluorescence
prevention of mPTP opening (loss of calcein fluorescence) [4]: substantially prevented
